According to ChEMBL document CHEMBL1909046, “DrugMatrix in vitro pharmacology data”:

Assays:
[1] = DRUGMATRIX: beta-Lactamase enzyme inhibition (substrate: Nitrocefin); parameters: species or system Bacillus cereus; conditions: Not Active = under 50% inhibition at 10 µM
[2] = target: T1, Cholecystokinin receptor type A (Homo sapiens, UniProt P32238); type: cell membranes, Membrane; conditions: 1321-n1; also: in other assays of this panel Not Active means under 50% inhibition at 10 µM
T1 sequence (P32238 whole entry): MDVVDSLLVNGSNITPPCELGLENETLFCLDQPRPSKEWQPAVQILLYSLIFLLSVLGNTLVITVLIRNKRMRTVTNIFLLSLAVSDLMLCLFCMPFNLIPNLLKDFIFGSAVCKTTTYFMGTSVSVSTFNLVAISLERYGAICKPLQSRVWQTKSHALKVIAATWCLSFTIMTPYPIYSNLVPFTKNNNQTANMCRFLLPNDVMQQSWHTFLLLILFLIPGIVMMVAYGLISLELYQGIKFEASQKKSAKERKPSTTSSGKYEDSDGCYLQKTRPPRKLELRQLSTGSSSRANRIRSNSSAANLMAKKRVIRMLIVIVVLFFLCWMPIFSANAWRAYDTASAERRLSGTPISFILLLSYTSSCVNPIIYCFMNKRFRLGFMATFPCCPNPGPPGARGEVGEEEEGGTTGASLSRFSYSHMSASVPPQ

[3] = DRUGMATRIX: GABAA, Chloride Channel, TBOB radioligand binding (ligand: [3H] TBOB); type: cell membranes, Rattus norvegicus, Wistar, Cerebral cortex, Membrane; conditions: Not Active = under 50% inhibition at 10 µM
[4] = target: Melanocortin receptor 3 (Homo sapiens, UniProt P41968); type: cell membranes, Membrane; conditions: hek293; also: in other assays of this panel Not Active means under 50% inhibition at 10 µM
Chain of Melanocortin receptor 3 (P41968 whole entry): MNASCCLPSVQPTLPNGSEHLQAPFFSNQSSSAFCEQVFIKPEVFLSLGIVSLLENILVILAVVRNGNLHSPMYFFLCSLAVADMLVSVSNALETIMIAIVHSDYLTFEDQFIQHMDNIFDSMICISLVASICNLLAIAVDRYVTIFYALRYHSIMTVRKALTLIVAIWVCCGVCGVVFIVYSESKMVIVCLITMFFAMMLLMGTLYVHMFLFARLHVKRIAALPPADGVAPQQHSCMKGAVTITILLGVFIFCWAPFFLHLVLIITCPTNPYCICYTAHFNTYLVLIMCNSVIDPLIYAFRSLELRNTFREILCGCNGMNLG

[5] = target: Delta-type opioid receptor (Homo sapiens, UniProt P41143); type: cell membranes, HEK293, Membrane; conditions: hek293; also: in other assays of this panel Not Active means under 50% inhibition at 10 µM
Chain of Delta-type opioid receptor (P41143 whole entry): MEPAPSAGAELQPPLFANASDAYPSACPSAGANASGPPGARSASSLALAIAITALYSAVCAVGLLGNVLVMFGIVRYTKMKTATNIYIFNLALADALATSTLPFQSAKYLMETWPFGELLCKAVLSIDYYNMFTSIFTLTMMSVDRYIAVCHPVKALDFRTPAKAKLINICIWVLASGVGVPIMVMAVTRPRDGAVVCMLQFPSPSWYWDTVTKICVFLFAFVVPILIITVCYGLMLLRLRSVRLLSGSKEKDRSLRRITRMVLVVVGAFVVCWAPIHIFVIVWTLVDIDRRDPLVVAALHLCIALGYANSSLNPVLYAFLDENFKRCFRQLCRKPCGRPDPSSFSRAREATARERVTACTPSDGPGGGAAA

[6] = target: cGMP-specific 3',5'-cyclic phosphodiesterase (Homo sapiens, UniProt O76074); experiment: DRUGMATRIX: Phosphodiesterase PDE5 enzyme inhibition (substrate: [3H]cGMP + cGMP); type: tissue-based, Platelet; conditions: platelet; Not Active = under 50% inhibition at 10 µM
[7] = target: T2, Progesterone receptor (Bos taurus, UniProt Q690N0); experiment: DRUGMATRIX: Progesterone radioligand binding (ligand: [3H] R-5020); type: tissue-based, Uterus; conditions: Not Active = under 50% inhibition at 10 µM
T2 sequence (Q690N0 whole entry): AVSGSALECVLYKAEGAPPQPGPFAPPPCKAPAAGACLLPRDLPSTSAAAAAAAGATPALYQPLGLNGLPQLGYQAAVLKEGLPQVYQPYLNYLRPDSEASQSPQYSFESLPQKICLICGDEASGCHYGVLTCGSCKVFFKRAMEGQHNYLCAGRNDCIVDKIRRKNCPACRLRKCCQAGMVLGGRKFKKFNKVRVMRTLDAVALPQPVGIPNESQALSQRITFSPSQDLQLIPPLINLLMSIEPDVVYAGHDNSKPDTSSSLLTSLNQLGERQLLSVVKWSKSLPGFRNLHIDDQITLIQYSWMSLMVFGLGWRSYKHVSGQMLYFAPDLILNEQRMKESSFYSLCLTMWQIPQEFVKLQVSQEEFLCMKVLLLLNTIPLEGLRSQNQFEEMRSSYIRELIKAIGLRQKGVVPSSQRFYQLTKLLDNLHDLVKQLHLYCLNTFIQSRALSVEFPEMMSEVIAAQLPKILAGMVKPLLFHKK

| Compound | IC50 [1] | Ki [1] | IC50 [2] | IC50 [3] | Ki [3] | IC50 [4] | IC50 [5] | IC50 [6] | IC50 [7] | Ki [2] | Ki [4] | Ki [5] | Ki [6] | Ki [7] | IC50 ([4]; read-out: IC50) | Ki ([4]; read-out: Ki) |
| --- | --- | --- | --- | --- | --- | --- | --- | --- | --- | --- | --- | --- | --- | --- | --- | --- |
| NNCCc1ccccc1 [PHENELZINE] | Not Active | Not Active | Not Active | Not Active | Not Active | Not Active | Not Active | Not Active | Not Active | – | – | – | – | – | – | – |
| CCc1ccc(CCOc2ccc(CC3SC(=O)NC3=O)cc2)nc1 (stereo not given) [PIOGLITAZONE] | Not Active | Not Active | Not Active | Not Active | Not Active | Not Active | Not Active | Not Active | Not Active | – | – | – | – | – | – | – |
| CCCNC(C)C(=O)Nc1ccccc1C (stereo not given) [PRILOCAINE] | Not Active | Not Active | Not Active | Not Active | Not Active | Not Active | Not Active | Not Active | Not Active | – | – | – | – | – | – | – |
| CCN(CC)CCNC(=O)c1ccc(N)cc1 [PROCAINAMIDE] | Not Active | Not Active | Not Active | Not Active | Not Active | Not Active | Not Active | Not Active | Not Active | – | – | – | – | – | – | – |
| CCN(CC)CCCC(C)Nc1c2ccc(Cl)cc2nc2ccc(OC)cc12 (stereo not given) [QUINACRINE] | Not Active | Not Active | Not Active | Not Active | Not Active | Not Active | Not Active | Not Active | Not Active | – | – | – | – | – | – | – |
| C[C@]12C=CC(=O)C=C1CC[C@H]1[C@@H]3C[C@@H](O)[C@](O)(C(=O)CO)[C@@]3(C)C[C@H](O)[C@@]12F [TRIAMCINOLONE] | Not Active | Not Active | Not Active | Not Active | Not Active | Not Active | Not Active | Not Active | Not Active | – | – | – | – | – | – | – |
| CC[C@]1(O)C[C@@H]2CN(CCc3c([nH]c4ccccc34)[C@@](C(=O)OC)(c3cc4c(cc3OC)N(C)[C@H]3[C@@](O)(C(N)=O)[C@H](O)[C@]5(CC)C=CCN6CC[C@]43[C@@H]65)C2)C1 [VINDESINE] | Not Active | Not Active | Not Active | Not Active | Not Active | Not Active | Not Active | Not Active | Not Active | – | – | – | – | – | – | – |
| CCN(C(C)=O)c1cccc(-c2ccnc3c(C#N)cnn23)c1 [ZALEPLON] | Not Active | Not Active | Not Active | Not Active | Not Active | Not Active | Not Active | Not Active | Not Active | – | – | – | – | – | – | – |
| COBALTOUS CHLORIDE | Not Active | Not Active | Not Active | Not Active | Not Active | Not Active | Not Active | Not Active | Not Active | Not Active | Not Active | Not Active | Not Active | Not Active | – | – |
| COLISTIN | Not Active | Not Active | Not Active | Not Active | Not Active | – | Not Active | Not Active | Not Active | Not Active | – | Not Active | Not Active | Not Active | 193 nM | 168 nM |
